Source: patent US7585859B2, “PDE4B inhibitors and uses therefor” (Plexxikon, Inc., priority 2004, dated 2009)
Like-named read-outs stand apart in the source and are kept apart here.

Assays:
Type in all cases: biochemical
[1] = biological target: T1, PDE4B: The catalytic domain of human PDE4B from S152-S528 (Homo sapiens, UniProt Q07343); experiment: PDE4 IC50 determination by Scintillation Proximity Assay, PDE4B
T1 construct: His6 (N); thrombin cleavage site (N); made in house; host or cells: E. coli
T1 sequence (Q07343 with tags, fused parts or gaps): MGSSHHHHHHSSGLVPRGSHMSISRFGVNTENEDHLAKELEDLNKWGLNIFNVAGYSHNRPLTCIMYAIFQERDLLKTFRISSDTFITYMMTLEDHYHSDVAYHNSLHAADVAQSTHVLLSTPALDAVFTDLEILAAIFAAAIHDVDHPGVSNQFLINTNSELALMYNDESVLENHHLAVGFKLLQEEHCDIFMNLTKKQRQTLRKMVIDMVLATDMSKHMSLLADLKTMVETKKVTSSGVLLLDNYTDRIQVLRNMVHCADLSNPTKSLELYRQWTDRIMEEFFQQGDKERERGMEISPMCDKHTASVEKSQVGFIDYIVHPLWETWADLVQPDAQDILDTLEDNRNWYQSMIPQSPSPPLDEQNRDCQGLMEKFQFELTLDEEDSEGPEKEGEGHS
Method in brief: (§1)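 Hydrolysis of [^3H]cAMP measured by SPA with yttrium silicate beads, which bind the [^3H]AMP product strongly and cAMP weakly. Enzyme at 80 ng/ml for PDE4B, 4 ng/ml for PDE4D; 30 min at 30°.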

[2] = biological target: T2, PDE4D (Homo sapiens, UniProt Q08499); experiment: PDE4 IC50 determination by Scintillation Proximity Assay, PDE4D
T2 construct: PDE4D: The catalytic domain of human PDE4B from S3 16-V692; His6 (N); thrombin cleavage site (N); made in house; host or cells: E. coli
T2 sequence (Q08499 380-756): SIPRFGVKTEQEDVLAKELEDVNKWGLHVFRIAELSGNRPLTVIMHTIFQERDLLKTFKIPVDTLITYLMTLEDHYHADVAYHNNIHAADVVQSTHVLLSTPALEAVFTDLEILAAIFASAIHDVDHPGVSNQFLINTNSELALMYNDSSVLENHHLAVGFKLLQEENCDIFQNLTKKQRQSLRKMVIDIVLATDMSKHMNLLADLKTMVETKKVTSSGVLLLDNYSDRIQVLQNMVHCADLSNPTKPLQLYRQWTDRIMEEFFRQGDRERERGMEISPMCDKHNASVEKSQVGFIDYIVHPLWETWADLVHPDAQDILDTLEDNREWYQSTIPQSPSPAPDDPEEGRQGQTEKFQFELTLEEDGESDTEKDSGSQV
Method in brief: as §1

[3] = biological target: T3, full-length human PDE4B2 isozyme (Homo sapiens, UniProt Q07343); experiment: PDE4 IC50 determination by Scintillation Proximity Assay, PDE4B2
T3 construct: The full-length human PDE4B2 isozyme; His6 (N); TEV cleavage site (N); made in house; host or cells: baculovirus infected insect cells (unpurified lysate)
T3 sequence (Q07343 1-564 isoform Q07343-2): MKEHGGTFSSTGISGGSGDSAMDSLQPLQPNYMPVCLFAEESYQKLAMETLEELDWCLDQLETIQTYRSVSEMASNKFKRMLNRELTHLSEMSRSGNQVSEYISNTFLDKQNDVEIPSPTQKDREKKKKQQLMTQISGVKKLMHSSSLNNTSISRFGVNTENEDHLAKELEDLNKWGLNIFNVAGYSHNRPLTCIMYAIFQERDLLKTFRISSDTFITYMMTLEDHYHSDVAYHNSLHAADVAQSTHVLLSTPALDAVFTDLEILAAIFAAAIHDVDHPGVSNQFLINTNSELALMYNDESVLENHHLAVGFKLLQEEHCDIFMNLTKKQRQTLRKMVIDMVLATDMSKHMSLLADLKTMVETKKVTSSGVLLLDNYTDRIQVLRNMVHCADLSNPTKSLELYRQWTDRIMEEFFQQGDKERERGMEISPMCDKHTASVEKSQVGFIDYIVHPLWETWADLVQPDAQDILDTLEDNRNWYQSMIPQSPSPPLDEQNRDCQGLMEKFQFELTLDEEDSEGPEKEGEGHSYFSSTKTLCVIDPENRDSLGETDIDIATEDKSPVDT
Experimental: IC50s were determined by Scintillation Proximity Assay (SPA). The principle of the assay is based on the fact that cAMP, the PDE4 substrate, binds weakly to Yittrium Silicate SPA beads, whereas AMP, the product of PDE4 hydrolysis binds strongly. Thus, the extent of PDE4 hydrolysis of a sample of [^3H]cAMP can be measured because only the
[^3H]AMP produced by PDE4 hydrolysis will bind to the SPA beads and produce a scintillation signal.
PDE4 enzymes used for IC50 assays were:
PDE4B2: The full-length human PDE4B2 isozyme with an N-terminal His6 tag (SEQ ID NO: 18) and TEV cleavage site expressed in baculovirus infected insect cells. The enzyme was not purified from the cell lysates, so enzyme concentrations were not determined. Enzyme was stored in 50% glycerol at −20°.
Compounds tested (see Tables 3B, 4B and 5A for compounds and results) were 3-fold serially diluted 11 times in DMSO from a starting concentration of 4 mM or 40 μM, depending on compound potency. 1 μl of each dilution was transferred into duplicate wells of a white polystyrene 384-well assay plate (Coming #3705). In addition to the compound dilutions, each assay plate contained control wells with 1 μl of DMSO (to define 0% enzyme inhibition) or 1 μl of 200 μM roflumilast (to define 100% enzyme inhibition). Using a Beckman FX robot, 10 μl of [^3H] cAMP (Amersham TRK559) at 2 mCi/ml in assay buffer (50 mM Tris, pH 7.5; 8.3 mM MgCl; 1.7 mM EGTA; 0.01% BSA) was transferred to each assay well. Next, 10 μl of PDE4 enzyme in assay buffer was added and the plates were shaken for 30 s. at 1000 rpm to start the cAMP hydrolysis reaction. The concentrations of enzyme used were: PDE4B, 80 ng/ml; PDE4D, 4 ng/ml; PDE4B2, 2.5 μl of 50% glycerol stock/ml; PDE4D5 0.083 μl of 50% glycerol stock/ml. Assay plates were covered and incubated for 30 min. at 30°. Reactions were stopped by robotic addition of 10 μl of 5 mg/ml SPA beads (Amersham RPNQ0013) in 18 mM ZnSO4. The assay plates were covered with clear plastic film, centrifuged for 1 min. at 1000 RPM to settle the SPA beads, and counted using a Wallac TriLux scintillation counter. IC50's were calculated from the raw assay data by non-linear regression curve fitting using the Assay Explorer software package from MDL.

[4] = second part of Table 2B (2-23 to 2-103), column 3, column is PDE4B in first part, read-out: IC 50 vs. indicated assay h TNFα
[5] = second part of Table 2B (2-23 to 2-103), column 5, column is PDE4D in first part, read-out: IC 50 vs. indicated assay h TNFα
[6] = second part of Table 2B (2-23 to 2-103), column 4, column is PDE4B2 in first part, read-out: IC 50 vs. indicated assay h TNFα
[7] = Table 1B, Formula I compounds, read-out: IC50 PDE4B
[8] = Table 1B, Formula I compounds, read-out: IC50 PDE4D
[9] = Table 3A, Formula III compounds, read-out: IC50 PDE4B
[10] = Table 3A, Formula III compounds, read-out: IC50 PDE4D

Structure (SMILES) | IC50 [1, 4] [µM] | IC50 [2, 5] [µM] | IC50 [1, 7] [µM] | IC50 [2, 8] [µM] | further results
N#Cc1c(Nc2ccc(C(=O)NC3CCOC3=O)cc2)sc(C(=O)c2cc(-c3ccccc3)no2)c1N (stereo not shown) [Compound 1-142, 4-[4-Amino-3-cyano-5-(3-phenyl-isoxazole-5-carbonyl)-thiophen-2-ylamino]-N-(2-oxo-tetrahydro-furan-3-yl)-benzamide] | – | – | < 10 | < 10 | IC50 ([3]; Table 1B, Formula I compounds, read-out: IC50 PDE4B2): < 10 µM
Cc1ccc2cccnc2c1NS(=O)(=O)c1ccc(S(=O)(=O)c2ccccc2)s1 [Compound 3-38, 5-Benzenesulfonyl-thiophene-2-sulfonic acid (7-methyl-quinolin-8-yl)-amide] | – | – | – | – | IC50 [1, 9]: > 10 µM; IC50 [2, 10]: > 10 µM
COc1cc(NS(=O)(=O)c2cc(F)ccc2C)c2ncccc2c1 [Compound 3-49, 5-Fluoro-N-(6-methoxy-quinolin-8-yl)-2-methyl-benzenesulfonamide] | – | – | – | – | IC50 [1, 9]: > 10 µM; IC50 [2, 10]: > 10 µM
Cc1onc(-c2ccccc2)c1C(=O)c1sc(NCCN2CCCCC2)c(C#N)c1N [Compound 1-59, 4-Amino-5-(5-methyl-3-phenyl-isoxazole-4-carbonyl)-2-(2-piperidin-1-yl-ethylamino)-thiophene-3-carbonitrile] | – | – | > 10 | > 10 | –
COc1ccc(C(=O)c2sc(Nc3ccc4c(c3)CCC4)c(C#N)c2N)c(OC)c1 [Compound 1-102, 4-Amino-5-(2,4-dimethoxy-benzoyl)-2-(indan-5-ylamino)-thiophene-3-carbonitrile] | – | – | < 10 | < 10 | –
CCOC(=O)c1cc(C(=O)c2sc(NCCN3CCCCC3)c(C#N)c2N)on1 [Compound 1-135, 5-[3-Amino-4-cyano-5-(2-piperidin-1-yl-ethylamino)-thiophene-2-carbonyl]-isoxazole-3-carboxylic acid ethyl ester] | – | – | < 10 | < 10 | –
CCOC(=O)c1cc(C(=O)c2sc(NC(=O)c3ccccc3C)c(C#N)c2N)on1 [Compound 1-136, 5-[3-Amino-4-cyano-5-(2-methyl-benzoylamino)-thiophene-2-carbonyl]-isoxazole-3-carboxylic acid ethyl ester] | – | – | > 10 | > 10 | –
COC(=O)C(CCSC)Nc1sc(C(=O)c2cccc(Cl)c2)c(N)c1C#N (stereo not shown) [Compound 1-156] | – | – | < 10 | < 10 | –
N#Cc1c(Nc2ccccc2F)sc(C(=O)c2ccccn2)c1N [Compound 1-144, 4-Amino-2-(2-fluoro-phenylamino)-5-(pyridine-2-carbonyl)-thiophene-3-carbonitrile] | – | – | < 10 | < 10 | –
COC(=O)C(CC(C)C)Nc1sc(C(=O)c2cc(OC)ccc2OC)c(N)c1C#N (stereo not shown) [Compound 1-154, 2-[4-Amino-3-cyano-5-(2,5-dimethoxy-benzoyl)-thiophen-2-ylamino]-4-methyl-pentanoic acid methyl ester] | – | – | < 10 | > 10 | –
Cc1c(C(=O)c2sc(Nc3ccccc3F)c(C#N)c2N)cnn1-c1ccccc1 [Compound 1-49, 4-Amino-2-(2-fluoro-phenylamino)-5-(5-methyl-1-phenyl-1H-pyrazole-4-carbonyl)-thiophene-3-carbonitrile] | – | – | < 10 | < 10 | –
Cc1ccc(C(=O)c2sc(NCCN3CCCCC3)c(C#N)c2N)c(C)c1 [Compound 1-38, 4-Amino-5-(2,4-dimethyl-benzoyl)-2-(2-piperidin-1-yl-ethylamino)-thiophene-3-carbonitrile] | – | – | > 10 | > 10 | –
COC(=O)C(CCSC)Nc1sc(C(=O)c2ccccc2Cl)c(N)c1C#N (stereo not shown) [Compound 1-112, 2-[4-Amino-5-(2-chloro-benzoyl)-3-cyano-thiophene-2-ylamino]-4-methylsulfanyl-butyric acid methyl ester] | – | – | < 10 | < 10 | –
Cc1ccc(S(=O)(=O)Nc2ccc(Br)c3cccnc23)cc1 [Compound 3-47, N-(5-Bromo-quinolin-8-yl)-4-methyl-benzenesulfonamide] | – | – | – | – | IC50 [1, 9]: > 10 µM; IC50 [2, 10]: > 10 µM
Cc1nccc(-c2cccc(S(=O)(=O)Nc3cccc4cccnc34)c2)n1 [Compound 3-66, 3-(2-Methyl-pyrimidin-4-yl)-N-quinolin-8-yl-benzenesulfonamide] | – | – | – | – | IC50 [1, 9]: < 10 µM; IC50 [2, 10]: < 10 µM
COC(=O)C(CCSC)Nc1sc(C(=O)c2ccccn2)c(N)c1C#N (stereo not shown) [Compound 1-65, 2-[4-Amino-3-cyano-5-(pyridine-2-carbonyl)-thiophen-2ylamino]-4-methylsulfanyl-butyric acid methyl ester] | – | – | > 10 | > 10 | –
CCC(CC)Nc1sc(C(=O)c2ccc(Oc3ccccc3)cc2)c(N)c1C#N [Compound 1-229, 4-Amino-2-(1-ethyl-propylamino)-5-(4-phenoxy-benzoyl)-thiophene-3-carbonitrile] | – | – | < 10 | < 10 | –

More lines, main results first:

IC50 [1, 4] [µM] | IC50 [2, 5] [µM] | IC50 [1, 7] [µM] | IC50 [2, 8] [µM] | Structure (SMILES) | further results
< 10 | < 10 | – | – | Nc1nc(Nc2c(Cl)cccc2Cl)sc1C(=O)c1ccccc1 [Compound 2-30, [4-Amino-2-(2,6-dichloro-phenylamino)-thiazol-5-yl]-phenyl-methanone] | IC50 [3, 6]: < 10 µM
< 10 | < 10 | – | – | Nc1nc(Nc2ccc(Cl)cc2)sc1C(=O)C1CCCC1 [Compound 2-92, [4-Amino-2-(4-chloro-phenylamino)-thiazol-5-yl]-cyclopentyl-methanone] | IC50 [3, 6]: < 10 µM
< 10 | – | – | – | Nc1nc(Nc2ccc(Oc3ccccc3)cc2)sc1C(=O)c1ccccc1 [Compound 2-67, [4-Amino-2-(4-phenoxy-phenylamino)-thiazol-5-yl]-phenyl-methanone] | IC50 [3, 6]: < 10 µM
< 10 | > 10 | – | – | N#Cc1cccc(Nc2nc(N)c(C(=O)c3ccc(OC(F)F)cc3)s2)c1 [Compound 2-60, 3-[4-Amino-5-(4-difluoromethoxy-benzoyl)-thiazol-2-ylamino]-benzonitrile] | –
> 10 | < 10 | – | – | Nc1nc(Nc2ccc(Oc3ccccc3)nc2)sc1C(=O)c1ccccc1 [Compound 2-74, [4-Amino-2-(6-phenoxy-pyridin-3-ylamino)-thiazol-5-yl]-phenyl-methanone] | –
< 10 | < 10 | – | – | Nc1nc(Nc2ccc(Oc3ccccc3)cc2)sc1C(=O)C1CC1 [Compound 2-97, [4-Amino-2-(4-phenoxy-phenylamino)-thiazol-5-yl]-cyclopropyl-methanone] | –
< 10 | < 10 | – | – | N#Cc1cccc(Nc2nc(N)c(C(=O)c3cccc(Cl)c3)s2)c1 [Compound 2-52, 3-[4-Amino-5-(3-chloro-benzoyl)-thiazol-2-ylamino]-benzonitrile] | –
< 10 | < 10 | – | – | COc1ccc(Nc2nc(N)c(C(=O)c3cccc(C(F)(F)F)c3)s2)cc1 [Compound 2-55, [4-Amino-2-(4-methoxy-phenylamino)-thiazol-5-yl]-(3-trifluoromethyl-phenyl)-methanone] | –
< 10 | < 10 | – | – | Nc1nc(NC2CC2)sc1C(=O)c1cccc(Cl)c1 [Compound 2-81, (4-Amino-2-cyclopropylamino-thiazol-5-yl)-(3-chloro-phenyl)-methanone] | –
